# How the values were obtained:
# [1] = Inhibition of 20S proteasome in human MIAPaCa2 cells after 90 mins by fluorescence-based […]; format: cell-based; conditions: mia paca-2
# NIH3T3 = assay: Cytotoxicity against mouse NIH/3T3 cells assessed as reduction in cell viability after 72 hrs by MTT assay; format: cell-based; conditions: nih3t3, 72 h
# MIA PaCa-2 = assay: Cytotoxicity against human MIAPaCa2 cells assessed as reduction in cell viability after 72 hrs by MTT assay; format: functional, cell-based; conditions: MIA PaCa-2, 72 h
Structure (SMILES),IC50 [1] [µM],Activity (NIH3T3),IC50 (MIA PaCa-2) [µM]
CCCCCCC/C=C/C=C/C(=O)N[C@H](C(=O)N[C@H]1CCCCNC(=O)/C=C/[C@H](C)NC1=O)[C@@H](C)O [LUMINMYCIN A],0.088,Non-toxic,0.018
CC(C)CCCCC/C=C/C=C/C(=O)N[C@H](C(=O)N[C@H]1CCCCNC(=O)/C=C/[C@H](C)NC1=O)[C@@H](C)O [LUMINMYCIN D],0.38,Non-toxic,0.11
CCCCCCC/C=C/C=C/C(=O)N[C@H](C(=O)N[C@H]1C[C@@H](O)CCNC(=O)/C=C/[C@H](C)NC1=O)[C@@H](C)O [GLIDOBACTIN A],0.069,Non-toxic,0.007
